Values quoted from earlier work in patent publication US6461634B1, “Food-based delivery of HGH-stimulating and other nutritional supplements” (priority 1999, dated 2002).

System: HGH
Settings: 5 mg melatonin taken orally one hour prior to vigorous exercise, versus vigorous exercise alone; healthy adult male subjects

COc1ccc2[nH]cc(CCNC(C)=O)c2c1 [melatonin]
increase in HGH resulting from vigorous exercise: triple
